Data as given in paper PMC4177008 (Organic & biomolecular chemistry, 2014).
“Also recorded” adds a separate entry of the source.

Experiments:
[1] = system: influenza virus A/Udorn/72 strain (H3N2); assay: MDCK cell-based plaque reduction assay, influenza A/Udorn/72; conditions: for EC50: influenza virus A/Udorn/72 strain (H3N2), 50% reduction of plaques in MDCK cells; for anti-influenza inhibitory activity (result in words) / inhibition to influenza virus at 100 μM / fold improvement of inhibitory activity over HTS hit P114F5: A/Udorn/72 (H3N2); for anti-influenza inhibitory activity (result in words): authors' description of the EC50 data; for inhibition to influenza virus at 100 μM: at a concentration of 100 μM; for fold improvement of inhibitory activity over HTS hit P114F5: compared to P114F5
[2] = system: Influenza A1/Jingfang 86-1(H1N1); assay: MDCK cell-based plaque reduction assay, influenza A1/Jingfang 86-1; conditions: Influenza A virus
[3] = system: Influenza A/PR/8/34 (H1N1); assay: MDCK cell-based plaque reduction assay, influenza A/PR/8/34; conditions: Influenza A virus, H1N1|PR/8, MDCK
Influenza B/Shenzhen/747 = assay: MDCK cell-based plaque reduction assay, influenza B/Shenzhen/747; conditions: Influenza B virus
[4] = system: influenza A/udorn/72 (H3N2); format: cell-based, influenza A virus
[5] = system: Influenza A3/Lufang 93-1(H3N2); assay: MDCK cell-based plaque reduction assay, influenza A3/Lufang 93-1; conditions: Influenza A virus
[6] = system: human epithelial carcinoma cell line (HeLa cells); assay: MTT cytotoxicity assay in HeLa cells; format: cell-based; conditions: 24 h, mean ± SD of triplicates
[7] = system: human embryonic kidney cells (HEK293 cells); assay: MTT cytotoxicity assay in HEK293 cells; format: cell-based; conditions: HEK 293 cells, 24 h, mean ± SD of triplicates
[8] = system: Madin-Darby canine kidney (MDCK) cells; assay: MTT cytotoxicity assay in MDCK cells; format: cell-based; conditions: 24 h, mean ± SD of triplicates
[9] = system: MDCK cells, HEK293 cells and HeLa cells; assay: MTT cytotoxicity, three cell lines; format: cell-based

CC(C)(C)OC(=O)N[C@@H](CC(N)=O)C(=O)N1CCC(Sc2ccnc3ccccc23)CC1 [Compound 12b, (S)-tert-Butyl (4-amino-1,4-dioxo-1-(4-(quinolin-4-ylthio)piperi-din-1-yl)butan-2-yl)carbamate]
EC50 [1]: > 100 µM

CC(C)(C)OC(=O)N[C@@H](Cc1ccccc1)C(=O)N1CCC(Sc2ccnc3ccccc23)CC1 [Compound 12a, (S)-tert-Bbutyl (1-oxo-3-phenyl-1-(4-(quinolin-4-ylthio)piperidin-1-yl)propan-2-yl)carbamate]
EC50 [1]: 15.5 µM

CCOC(=O)N1CCC(Sc2ccc(C)cc2)CC1 [Compound 1d, Ethyl 4-(p-tolylthio)piperidine-1-carboxylate]
anti-influenza inhibitory activity (result in words) [1]: moderate inhibitory activities

CCOC(=O)N1CCC(Sc2ccnc3ccccc23)CC1 [Compound P114F5, ethyl 4-(quinolin-4-ylthio)piperidine-1-carboxylate]
EC50 [2]: 9.05 µM
EC50 [3]: 8.78 µM
EC50 (Influenza B/Shenzhen/747): 10.9 µM
time-of-addition effect [4]: most effective as an inhibitor of influenza virus; also recorded: no significant anti-influenza activities were observed
EC50 [5]: 11.7 µM

c1ccc2c(OC3CCNCC3)ccnc2c1 [Compound 11h, 4-(Piperidin-4-yloxy)quinolone]
anti-influenza inhibitory activity (result in words) [1]: significantly reduced the activity
EC50 [1]: > 100 µM

CCOC(=O)N1CCC(Sc2ccncc2)CC1 [Compound 1c, Ethyl 4-(pyridin-4-ylthio)piperidine-1-carboxylate]
inhibition to influenza virus at 100 μM [1]: did not show any inhibition

CCOC(=O)N1CCC(Sc2ccc(OC)cc2)CC1 [Compound 1e, Ethyl 4-((4-methoxyphenyl)thio)piperidine-1-carboxylate]
anti-influenza inhibitory activity (result in words) [1]: moderate inhibitory activities

c1ccc2c(OC3CCOCC3)ccnc2c1 [Compound 11j, 4-((Tetrahydro-2H-pyran-4-yl)oxy)quinolone]
EC50 [1]: > 100 µM

CCOC(=O)N1CCC(Sc2cc(-c3ccccc3)nc3ccccc23)CC1 [Compound 1a, Ethyl 4-((2-phenylquinolin-4-yl)thio)piperidine-1-carboxylate]
inhibition to influenza virus at 100 μM [1]: did not show any inhibition

CCOC(=O)N1CCC(Sc2cccc3ccccc23)CC1 [Compound 1f, Ethyl 4-(naphthalen-1-ylthio)piperidine-1-carboxylate]
anti-influenza inhibitory activity (result in words) [1]: moderate inhibitory activities

CC(C)(C)OC(=O)N1CCC(Oc2ccnc3ccccc23)CC1 [Compound 11e, tert-Butyl 4-(quinolin-4-yloxy)piperidine-1-carboxylate]
MDL50 (μM) mean ± SD [6]: 8850.21 ± 406.99 µM
fold improvement of inhibitory activity over HTS hit P114F5 [1]: 100 fold
EC50 [2]: 0.1 µM
EC50 [3]: 0.07 µM
MDL50 (μM) mean ± SD [7]: 8101.97 ± 473.16 µM
EC50 (Influenza B/Shenzhen/747): 0.05 µM
MDL50 (μM) mean ± SD [8]: 10061.92 ± 235.86 µM
EC50 [5]: 0.06 µM
cytotoxicity (result in words) ([9]; any of the cell lines, up to a concentration of millimolar (mM) range, MTT): did not exhibit cytotoxicity; also recorded: did not observe cytotoxicity
selectivity index value (SI = MLD50/EC50) ([9]; based on cytotoxicity measured by MTT assays of three cell lines): over 160,000

CCOC(=O)N1CCC(Oc2ccnc3ccccc23)CC1 [Compound 6a, Ethyl 4-(quinolin-4-yloxy)piperidine-1-carboxylate]
anti-influenza inhibitory activity (result in words) [1]: good inhibitory activity
fold improvement of inhibitory activity over HTS hit P114F5 [1]: 6 fold

CCOC(=O)N1CCC(Nc2ccnc3ccccc23)CC1 [Compound 6b, Ethyl 4-(quinolin-4-ylamino)piperidine-1-carboxylate]
anti-influenza inhibitory activity (result in words) [1]: moderate inhibitory activity

CCOC(=O)N1CCC(Sc2cc(Cl)nc3ccccc23)CC1 [Compound 1b, Ethyl 4-((2-chloroquinolin-4-yl)thio)piperidine-1-carboxylate]
anti-influenza inhibitory activity (result in words) [1]: moderate inhibitory activities
